In USRE48461E1, “Modulation of androgen receptor expression” (Ionis Pharmaceuticals, Inc., priority 2012, dated 2021):
Oligonucleotides are written 5' to 3', each unit as a sugar letter and its base; * is a phosphorothioate linkage, no mark a phosphodiester; rarer units and linkages stand in square brackets, end groups in braces. Plain capitals give the bases only. k = constrained ethyl (cEt); [5mC] = 5-methylcytosine; d = 2'-deoxy (DNA)

Key:
AR mRNA [1] = assay: Dose-dependent antisense inhibition of human AR in HuVEC cells (electroporation, qRT-PCR RTS3559, IC50); format: cell-based; conditions: HuVEC, electroporation, approximately 16 hours
Method in brief: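 HuVEC cells dosed with antisense oligonucleotides by electroporation and treated approximately 16 hours. AR mRNA quantified by real-time qPCR with primer probe set RTS3559 and normalised to total RNA by RIBOGREEN; IC50 from dose-response.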

AR mRNA [2] = assay: Antisense inhibition of human AR in HuVEC cells, single concentration (electroporation, qRT-PCR RTS3559); format: cell-based; conditions: electroporation, approximately 24 hours, relative to untreated control
Method in brief: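 HuVEC cells electroporated with antisense oligonucleotides at a single concentration. AR mRNA quantified by qRT-PCR using human primer-probe set RTS3559 and normalised to total RNA content by RIBOGREEN.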

[3] = Table 20, 500 nM oligonucleotide
[4] = Table 21, 500 nM oligonucleotide
[5] = Table 22, 500 nM oligonucleotide

## 583868 (kA*k[5mC]*kT*d[5mC]*dA*dG*d[5mC]*dA*dG*dT*dA*dT*d[5mC]*kT*kT*k[5mC]; antisense) [compound 583868]
AR mRNA [1]; Table 33
  percent inhibition of AR, 46.9 nM: 19%
  percent inhibition of AR, 187.5 nM: 31%
  percent inhibition of AR, 750.0 nM: 59%
  percent inhibition of AR, 3000.0 nM: 81%
  IC50: 0.41 µM
AR mRNA [2]; [3]
  % inhibition: 34%

## 583871 (kA*kT*kA*d[5mC]*dT*d[5mC]*dA*dG*d[5mC]*dA*dG*dT*dA*kT*k[5mC]*kT; antisense) [compound 583871]
AR mRNA [1]; Table 32
  percent inhibition of AR, 46.9 nM: 28%
  percent inhibition of AR, 187.5 nM: 30%
  percent inhibition of AR, 750.0 nM: 68%
  percent inhibition of AR, 3000.0 nM: 87%
  IC50: 0.28 µM
AR mRNA [2]; [3]
  % inhibition: 47%

## 583880 (kT*kT*kT*dG*dG*dT*dG*dT*dA*dA*d[5mC]*d[5mC]*dT*k[5mC]*k[5mC]*k[5mC]; antisense) [compound 583880]
AR mRNA [1]; Table 32
  percent inhibition of AR, 46.9 nM: 13%
  percent inhibition of AR, 187.5 nM: 52%
  percent inhibition of AR, 750.0 nM: 78%
  percent inhibition of AR, 3000.0 nM: 92%
  IC50: 0.22 µM
AR mRNA [2]; [3]
  % inhibition: 39%

## 583881 (k[5mC]*k[5mC]*kT*dT*dT*dG*dG*dT*dG*dT*dA*dA*d[5mC]*k[5mC]*kT*k[5mC]; antisense) [compound 583881]
AR mRNA [1]; Table 32
  percent inhibition of AR, 46.9 nM: 28%
  percent inhibition of AR, 187.5 nM: 50%
  percent inhibition of AR, 750.0 nM: 85%
  percent inhibition of AR, 3000.0 nM: 91%
  IC50: 0.15 µM
AR mRNA [2]; [3]
  % inhibition: 47%

## 583892 (k[5mC]*kA*kG*d[5mC]*d[5mC]*dT*dA*dG*dG*d[5mC]*dT*d[5mC]*dT*k[5mC]*kG*k[5mC]; antisense) [compound 583892]
AR mRNA [1]; Table 33
  percent inhibition of AR, 46.9 nM: 22%
  percent inhibition of AR, 187.5 nM: 38%
  percent inhibition of AR, 750.0 nM: 68%
  percent inhibition of AR, 3000.0 nM: 83%
  IC50: 0.27 µM
AR mRNA [2]; [3]
  % inhibition: 35%

## 583893 (kA*kG*k[5mC]*dA*dG*d[5mC]*d[5mC]*dT*dA*dG*dG*d[5mC]*dT*k[5mC]*kT*k[5mC]; antisense) [compound 583893]
AR mRNA [1]; Table 33
  percent inhibition of AR, 46.9 nM: 15%
  percent inhibition of AR, 187.5 nM: 35%
  percent inhibition of AR, 750.0 nM: 62%
  percent inhibition of AR, 3000.0 nM: 79%
  IC50: 0.42 µM
AR mRNA [2]; [3]
  % inhibition: 34%

## 583917 (kT*k[5mC]*kG*d[5mC]*dG*dA*d[5mC]*dT*d[5mC]*dT*dG*dG*dT*kA*k[5mC]*kG; antisense) [compound 583917]
AR mRNA [1]; Table 34
  percent inhibition of AR, 46.9 nM: 6%
  percent inhibition of AR, 187.5 nM: 30%
  percent inhibition of AR, 750.0 nM: 50%
  percent inhibition of AR, 3000.0 nM: 70%
  IC50: 0.64 µM
AR mRNA [2]; [4]
  % inhibition: 37%

## 583919 (kG*kT*kA*dG*dT*d[5mC]*dG*d[5mC]*dG*dA*d[5mC]*dT*d[5mC]*kT*kG*kG; antisense) [compound 583919]
AR mRNA [1]; Table 33
  percent inhibition of AR, 46.9 nM: 27%
  percent inhibition of AR, 187.5 nM: 60%
  percent inhibition of AR, 750.0 nM: 85%
  percent inhibition of AR, 3000.0 nM: 91%
  IC50: 0.14 µM
AR mRNA [2]; [4]
  % inhibition: 55%

## 583920 (kT*kA*kG*dT*dA*dG*dT*d[5mC]*dG*d[5mC]*dG*dA*d[5mC]*kT*k[5mC]*kT; antisense) [compound 583920]
AR mRNA [1]; Table 33
  percent inhibition of AR, 46.9 nM: 11%
  percent inhibition of AR, 187.5 nM: 16%
  percent inhibition of AR, 750.0 nM: 50%
  percent inhibition of AR, 3000.0 nM: 72%
  IC50: 0.76 µM
AR mRNA [2]; [4]
  % inhibition: 42%

## 583922 (kA*kG*kT*dT*dG*dT*dA*dG*dT*dA*dG*dT*d[5mC]*kG*k[5mC]*kG; antisense) [compound 583922]
AR mRNA [1]; Table 34
  percent inhibition of AR, 46.9 nM: 16%
  percent inhibition of AR, 187.5 nM: 43%
  percent inhibition of AR, 750.0 nM: 76%
  percent inhibition of AR, 3000.0 nM: 92%
  IC50: 0.23 µM
AR mRNA [2]; [4]
  % inhibition: 37%

## 583932 (kT*k[5mC]*kT*d[5mC]*d[5mC]*dA*dG*d[5mC]*dT*dT*dG*dA*dT*kG*k[5mC]*kG; antisense) [compound 583932]
AR mRNA [1]; Table 34
  percent inhibition of AR, 46.9 nM: 9%
  percent inhibition of AR, 187.5 nM: 35%
  percent inhibition of AR, 750.0 nM: 64%
  percent inhibition of AR, 3000.0 nM: 81%
  IC50: 0.38 µM
AR mRNA [2]; [4]
  % inhibition: 39%

## 583933 (k[5mC]*kA*kG*d[5mC]*dG*dG*dG*dT*dT*d[5mC]*dT*d[5mC]*d[5mC]*kA*kG*k[5mC]; antisense) [compound 583933]
AR mRNA [1]; Table 34
  percent inhibition of AR, 46.9 nM: 22%
  percent inhibition of AR, 187.5 nM: 25%
  percent inhibition of AR, 750.0 nM: 56%
  percent inhibition of AR, 3000.0 nM: 81%
  IC50: 0.41 µM
AR mRNA [2]; [4]
  % inhibition: 38%

## 583969 (k[5mC]*k[5mC]*kT*dT*d[5mC]*dT*dT*d[5mC]*dG*dG*d[5mC]*dT*dG*kT*kG*kA; antisense) [compound 583969]
AR mRNA [1]; Table 33
  percent inhibition of AR, 46.9 nM: 12%
  percent inhibition of AR, 187.5 nM: 26%
  percent inhibition of AR, 750.0 nM: 66%
  percent inhibition of AR, 3000.0 nM: 86%
  IC50: 0.44 µM
AR mRNA [2]; [4]
  % inhibition: 44%

## 583990 (kA*k[5mC]*kA*d[5mC]*dA*dT*d[5mC]*dA*dG*dG*dT*dG*d[5mC]*kG*kG*kT; antisense) [compound 583990]
AR mRNA [1]; Table 34
  percent inhibition of AR, 46.9 nM: 0%
  percent inhibition of AR, 187.5 nM: 9%
  percent inhibition of AR, 750.0 nM: 33%
  percent inhibition of AR, 3000.0 nM: 56%
  IC50: 1.92 µM
AR mRNA [2]; [5]
  % inhibition: 30%

## 583996 (k[5mC]*kG*k[5mC]*d[5mC]*dA*dG*dG*dG*dT*dA*d[5mC]*d[5mC]*dA*k[5mC]*kA*k[5mC]; antisense) [compound 583996]
AR mRNA [1]; Table 34
  percent inhibition of AR, 46.9 nM: 26%
  percent inhibition of AR, 187.5 nM: 12%
  percent inhibition of AR, 750.0 nM: 50%
  percent inhibition of AR, 3000.0 nM: 70%
  IC50: 0.71 µM
AR mRNA [2]; [5]
  % inhibition: 33%

## 583998 (k[5mC]*kA*kT*dG*d[5mC]*d[5mC]*dG*d[5mC]*d[5mC]*dA*dG*dG*dG*kT*kA*k[5mC]; antisense) [compound 583998]
AR mRNA [1]; Table 34
  percent inhibition of AR, 46.9 nM: 4%
  percent inhibition of AR, 187.5 nM: 25%
  percent inhibition of AR, 750.0 nM: 38%
  percent inhibition of AR, 3000.0 nM: 70%
  IC50: 0.89 µM
AR mRNA [2]; [5]
  % inhibition: 45%

## 583999 (kA*k[5mC]*k[5mC]*dA*dT*dG*d[5mC]*d[5mC]*dG*d[5mC]*d[5mC]*dA*dG*kG*kG*kT; antisense) [compound 583999]
AR mRNA [1]; Table 34
  percent inhibition of AR, 46.9 nM: 13%
  percent inhibition of AR, 187.5 nM: 12%
  percent inhibition of AR, 750.0 nM: 30%
  percent inhibition of AR, 3000.0 nM: 64%
  IC50: 1.53 µM
AR mRNA [2]; [5]
  % inhibition: 29%

## 584002 (k[5mC]*kT*kG*d[5mC]*dT*d[5mC]*dA*d[5mC]*d[5mC]*dA*dT*dG*d[5mC]*k[5mC]*kG*k[5mC]; antisense) [compound 584002]
AR mRNA [1]; Table 34
  percent inhibition of AR, 46.9 nM: 12%
  percent inhibition of AR, 187.5 nM: 46%
  percent inhibition of AR, 750.0 nM: 70%
  percent inhibition of AR, 3000.0 nM: 92%
  IC50: 0.25 µM
AR mRNA [2]; [5]
  % inhibition: 30%

## 584006 (kA*k[5mC]*kA*d[5mC]*dA*dA*dG*dT*dG*dG*dG*dA*d[5mC]*kT*kG*kG; antisense) [compound 584006]
AR mRNA [1]; Table 34
  percent inhibition of AR, 46.9 nM: 21%
  percent inhibition of AR, 187.5 nM: 26%
  percent inhibition of AR, 750.0 nM: 59%
  percent inhibition of AR, 3000.0 nM: 88%
  IC50: 0.35 µM
AR mRNA [2]; [5]
  % inhibition: 33%
